The subject of this assay is pre-cultured PBMCs (NSP12-specific T cells). The assay is described as follows: IFN-γ ELISpot with single 15-mer peptides after 11–13 days in vitro peptide-pool T-cell expansion. For all read-outs here: unit not given here. Format: cell-based, human. The conditions noted are these: single NSP12 15-mer peptides; for peptide-specific response, donor HH-N12-18, post COVID-19 / peptide-specific response, donor HH-N12-34, post COVID-19 / peptide-specific response, donor HH-N12-35, post COVID-19 / peptide-specific response, donor HH-N12-36, post COVID-19 / peptide-specific response, donor HH-N12-37, post COVID-19: sample post COVID-19; for peptide-specific response, donor HH-N12-18, pre COVID-19 / peptide-specific response, donor HH-N12-34, pre COVID-19 / peptide-specific response, donor HH-N12-35, pre COVID-19 / peptide-specific response, donor HH-N12-36, pre COVID-19 / peptide-specific response, donor HH-N12-37, pre COVID-19: sample pre COVID-19.

Turning to MLKTVYSDVENPHLM [compound 121], the “peptide-specific response, donor HH-N12-18, post COVID-19” value was 0; the “peptide-specific response, donor HH-N12-18, pre COVID-19” value came out at 0; the “peptide-specific response, donor HH-N12-34, post COVID-19” value is reported as 0; the “peptide-specific response, donor HH-N12-34, pre COVID-19” value amounted to 0. For the same sequence, the “peptide-specific response, donor HH-N12-35, post COVID-19” value came out at 0; the “peptide-specific response, donor HH-N12-35, pre COVID-19” value turned out to be 0; the “peptide-specific response, donor HH-N12-36, post COVID-19” value was determined as 0.052; the “peptide-specific response, donor HH-N12-36, pre COVID-19” value was 0. Besides, the “peptide-specific response, donor HH-N12-37, post COVID-19” value was 0 and the “peptide-specific response, donor HH-N12-37, pre COVID-19” value was 0.

Regarding RLYECLYRNRDVDTD [compound 146], the “peptide-specific response, donor HH-N12-18, post COVID-19” value is 0; the “peptide-specific response, donor HH-N12-18, pre COVID-19” value stood at 0; the “peptide-specific response, donor HH-N12-34, post COVID-19” value came to 0.023; the “peptide-specific response, donor HH-N12-34, pre COVID-19” value stood at 0. Also, the “peptide-specific response, donor HH-N12-35, post COVID-19” value turned out to be 0; the “peptide-specific response, donor HH-N12-35, pre COVID-19” value turned out to be 0; the “peptide-specific response, donor HH-N12-36, post COVID-19” value is reported as 0; the “peptide-specific response, donor HH-N12-36, pre COVID-19” value came to 0. In addition, the “peptide-specific response, donor HH-N12-37, post COVID-19” value amounted to 0 and the “peptide-specific response, donor HH-N12-37, pre COVID-19” value is 0.02.

Turning to WYDFGDFIQTTPGSG [compound 44], the “peptide-specific response, donor HH-N12-18, post COVID-19” value was found to be 0; the “peptide-specific response, donor HH-N12-18, pre COVID-19” value was 0; the “peptide-specific response, donor HH-N12-34, post COVID-19” value stood at 0; the “peptide-specific response, donor HH-N12-34, pre COVID-19” value is listed as 0. For the same sequence, the “peptide-specific response, donor HH-N12-35, post COVID-19” value is on record as 0; the “peptide-specific response, donor HH-N12-35, pre COVID-19” value is listed as 0; the “peptide-specific response, donor HH-N12-36, post COVID-19” value is on record as 0; the “peptide-specific response, donor HH-N12-36, pre COVID-19” value was determined as 0. Moreover, the “peptide-specific response, donor HH-N12-37, post COVID-19” value is listed as 0 and the “peptide-specific response, donor HH-N12-37, pre COVID-19” value worked out at 0.05.

VAKHDFFKFRIDGDM [compound 20]: the “peptide-specific response, donor HH-N12-18, post COVID-19” value amounted to 0; the “peptide-specific response, donor HH-N12-18, pre COVID-19” value is 0; the “peptide-specific response, donor HH-N12-34, post COVID-19” value came to 0; the “peptide-specific response, donor HH-N12-34, pre COVID-19” value is reported as 0. For the same sequence, the “peptide-specific response, donor HH-N12-35, post COVID-19” value turned out to be 0; the “peptide-specific response, donor HH-N12-35, pre COVID-19” value is recorded as 0; the “peptide-specific response, donor HH-N12-36, post COVID-19” value is recorded as 0; the “peptide-specific response, donor HH-N12-36, pre COVID-19” value stood at 0. Besides, the “peptide-specific response, donor HH-N12-37, post COVID-19” value is listed as 0 and the “peptide-specific response, donor HH-N12-37, pre COVID-19” value stood at 0.

With LTAESHVDTDLTKPY [compound 51], the “peptide-specific response, donor HH-N12-18, post COVID-19” value came to 0; the “peptide-specific response, donor HH-N12-18, pre COVID-19” value was 0; the “peptide-specific response, donor HH-N12-34, post COVID-19” value turned out to be 0; the “peptide-specific response, donor HH-N12-34, pre COVID-19” value came out at 0. Also, the “peptide-specific response, donor HH-N12-35, post COVID-19” value came out at 0; the “peptide-specific response, donor HH-N12-35, pre COVID-19” value is listed as 0; the “peptide-specific response, donor HH-N12-36, post COVID-19” value came out at 0; the “peptide-specific response, donor HH-N12-36, pre COVID-19” value turned out to be 0.05. Moreover, the “peptide-specific response, donor HH-N12-37, post COVID-19” value is reported as 0 and the “peptide-specific response, donor HH-N12-37, pre COVID-19” value was 0.

As for FQEKDEDDNLIDSYF [compound 12], the “peptide-specific response, donor HH-N12-18, post COVID-19” value came out at 0; the “peptide-specific response, donor HH-N12-18, pre COVID-19” value amounted to 0; the “peptide-specific response, donor HH-N12-34, post COVID-19” value was 0; the “peptide-specific response, donor HH-N12-34, pre COVID-19” value is recorded as 0. Further, the “peptide-specific response, donor HH-N12-35, post COVID-19” value was 0; the “peptide-specific response, donor HH-N12-35, pre COVID-19” value turned out to be 0; the “peptide-specific response, donor HH-N12-36, post COVID-19” value was 0; the “peptide-specific response, donor HH-N12-36, pre COVID-19” value came to 0. Besides, the “peptide-specific response, donor HH-N12-37, post COVID-19” value is given as 0 and the “peptide-specific response, donor HH-N12-37, pre COVID-19” value came out at 0.
